# Test results reported in US20240409531A1, “BENZOXAZINONE DERIVATIVES AS SELECTIVE CYTOTOXIC AGENTS” (Merck Sharp & Dohme LLC, priority 2021, published 2024).
# Tested on: PBMCs infected with VSV-G pseudotyped HIV virus (VSV-G/pNLGI-P2A-ΔEnv)
# Test: cells
# Type: cell-based
# Details: Homo sapiens, PBMC, read-out: TACK EC50 (nM)
row,SMILES,EC50
1,"O=C1Nc2cc(Cn3cnc(C(F)F)cc3=O)c(Cl)cc2[C@@](C#CC2CC2)(C(F)(F)F)O1 [Example 18, (S)-6-chloro-4-(cyclopropylethynyl)-7-((4-(difluoromethyl)-6-oxopyrimidin-1(6H)-yl)methyl)-4-(trifluoromethyl)-1,4-dihydro-2H-benzo[d][1,3]oxazin-2-one]",83 nM
2,"O=C1Nc2cc(Cn3cnccc3=O)c(F)cc2[C@@](C#CC2CC2)(C(F)(F)F)O1 (single isomer, unassigned) [Example 2A]",88 nM
3,"COCc1cc(=O)n(Cc2cc3c(cc2Cl)[C@@](C#CC2CC2)(C(F)(F)F)OC(=O)N3)cn1 [Example 19, (S)-6-chloro-4-(cyclopropylethynyl)-7-((4-(methoxymethyl)-6-oxopyrimidin-1(6H)-yl)methyl)-4-(trifluoromethyl)-1,4-dihydro-2H-benzo[d][1,3]oxazin-2-one]",128 nM
4,"CC(F)(F)[C@@]1(C#CC2CC2)OC(=O)Nc2cc(Cn3ccnc(N)c3=O)c(F)cc21 [Example 21, (S)-7-((3-amino-2-oxopyrazin-1(2H)-yl)methyl)-4-(cyclopropylethynyl)-4-(1,1-difluoroethyl)-6-fluoro-1,4-dihydro-2H-benzo[d][1,3]oxazin-2-one]",12 nM
5,"Cc1cc(=O)n(Cc2cc3c(cc2F)[C@@](C#CC2CC2)(C(F)(F)F)OC(=O)N3)cn1 (single isomer, unassigned) [Example 6A]",43 nM
6,"COc1cc(=O)n(Cc2cc3c(cc2Cl)[C@@](C#CC2CC2)(C(C)(F)F)OC(=O)N3)cn1 [Example 13, (S)-6-chloro-4-(cyclopropylethynyl)-4-(1,1-difluoroethyl)-7-((4-methoxy-6-oxopyrimidin-1(6H)-yl)methyl)-1,4-dihydro-2H-benzo[d][1,3]oxazin-2-one]",11 nM
7,"Nc1nccc(Cc2cc3c(cc2Cl)[C@@](C#CC2CC2)(C(F)(F)F)OC(=O)N3)n1 [Example 38, (S)-7-((2-aminopyrimidin-4-yl)methyl)-6-chloro-4-(cyclopropylethynyl)-4-(trifluoromethyl)-1,4-dihydro-2H-benzo[d][1,3]oxazin-2-one]",149 nM
8,"CC(F)(F)[C@@]1(C#CC2CC2)OC(=O)Nc2cc(Cc3ccnc(N)n3)ccc21 [Example 37, (S)-7-((2-aminopyrimidin-4-yl)methyl)-4-(cyclopropylethynyl)-4-(1.1-difluoroethyl)-1.4-dihydro-2H-benzo[d][1.3]oxazin-2-one]",43 nM
9,"Nc1cncn(Cc2cc3c(cc2F)[C@@](C#CC2CC2)(C(F)(F)F)OC(=O)N3)c1=O (single isomer, unassigned) [Example 3A]",46 nM
10,"Nc1nccn(Cc2cc3c(cc2Cl)[C@@](C#CC2CC2)(C(F)(F)F)OC(=O)N3)c1=O [Example 16, (S)-7-((3-amino-2-oxopyrazin-1(2H)-yl)methyl)-6-chloro-4-(cyclopropylethynyl)-4-(trifluoromethyl)-1,4-dihydro-2H-benzo[d][1,3]oxazin-2-one]",113 nM
11,"COCc1cc(=O)n(Cc2cc3c(cc2Cl)[C@@](C#CC2CC2)(C(C)(F)F)OC(=O)N3)cn1 [Example 27, (S)-6-chloro-4-(cyclopropylethynyl)-4-(1,1-difluoroethyl)-7-((4-(methoxymethyl)-6-oxopyrimidin-1(6H)-yl)methyl)-1,4-dihydro-2H-benzo[d][1,3]oxazin-2-one]",16 nM
12,"COCc1cc(=O)n(Cc2cc3c(cc2F)[C@@](C#CC2CC2)(C(C)(F)F)OC(=O)N3)cn1 [Example 23, (S)-4-(cyclopropylethynyl)-4-(1,1-difluoroethyl)-6-fluoro-7-((4-(methoxymethyl)-6-oxopyrimidin-1(6H)-yl)methyl)-1,4-dihydro-2H-benzo[d][1,3]oxazin-2-one]",16 nM
13,"Cc1cc(=O)n(Cc2ccc3c(c2)NC(=O)O[C@]3(C#CC2CC2)C(C)(F)F)cn1 [Example 10, (S)-4-(cyclopropylethynyl)-4-(1,1-difluoroethyl)-7-((4-methyl-6-oxopyrimidin-1(6H)-yl)methyl)-1,4-dihydro-2H-benzo[d][1,3]oxazin-2-one]",66 nM
14,"COc1cc(=O)n(Cc2cc3c(cc2Cl)[C@@](C#CC2CC2)(C(F)(F)F)OC(=O)N3)cn1 [Example 14, (S)-6-chloro-4-(cyclopropylethynyl)-7-((4-methoxy-6-oxopyrimidin-1(6H)-yl)methyl)-4-(trifluoromethyl)-1,4-dihydro-2H-benzo[d][1,3]oxazin-2-one]",63 nM
15,"Nc1nccc(Cc2cc3c(cc2F)[C@@](C#CC2CC2)(C(F)(F)F)OC(=O)N3)n1 (single isomer, unassigned) [Example 31A]",91 nM
16,"Cc1cc(=O)n(Cc2cc3c(cc2Cl)[C@@](C#CC2CC2)(C(C)(F)F)OC(=O)N3)cn1 [Example 28, (S)-6-chloro-4-(cyclopropylethynyl)-4-(1,1-difluoroethyl)-7-((4-methyl-6-oxopyrimidin-1(6H)-yl)methyl)-1,4-dihydro-2H-benzo[d][1,3]oxazin-2-one]",15 nM
17,"COCc1cc(=O)n(Cc2cc3c(cc2F)[C@@](C#CC2CC2)(C(F)(F)F)OC(=O)N3)cn1 (single isomer, unassigned) [Example 5A]",35 nM

row,SMILES,EC50
1,"CC(F)(F)[C@@]1(C#CC2CC2)OC(=O)Nc2cc(Cn3ccnc(N)c3=O)c(Cl)cc21 [Example 25, (S)-7-((3-amino-2-oxopyrazin-1(2H)-yl)methyl)-6-chloro-4-(cyclopropylethynyl)-4-(1,1-difluoroethyl)-1,4-dihydro-2H-benzo[d][1,3]oxazin-2-one]",37 nM
2,"COc1cc(=O)n(Cc2cc3c(cc2F)[C@@](C#CC2CC2)(C(C)(F)F)OC(=O)N3)cn1 [Example 24, (S)-4-(cyclopropylethynyl)-4-(1,1-difluoroethyl)-6-fluoro-7-((4-methoxy-6-oxopyrimidin-1(6H)-yl)methyl)-1,4-dihydro-2H-benzo[d][1,3]oxazin-2-one]",9 nM
3,"COc1cc(=O)n(Cc2ccc3c(c2)NC(=O)O[C@]3(C#CC2CC2)C(C)(F)F)cn1 [Example 11, (S)-4-(cyclopropylethynyl)-4-(1,1-difluoroethyl)-7-((4-methoxy-6-oxopyrimidin-1(6H)-yl)methyl)-1,4-dihydro-2H-benzo[d][1,3]oxazin-2-one]",47 nM
4,"CC(F)(F)[C@@]1(C#CC2CC2)OC(=O)Nc2cc(Cc3ccnc(N)c3C#N)c(F)cc21 [Example 36, (S)-2-amino-4-((4-(cyclopropylethynyl)-4-(1,1-difluoroethyl)-6-fluoro-2-oxo-1,4-dihydro-2H-benzo[d][1,3]oxazin-7-yl)methyl)nicotinonitrile]",18 nM
5,"CC(F)(F)[C@@]1(C#CC2CC2)OC(=O)Nc2cc(Cc3ccnc(N)c3C#N)c(Cl)cc21 [Example 34, (S)-2-amino-4-((6-chloro-4-(cyclopropylethynyl)-4-(1,1-difluoroethyl)-2-oxo-1,4-dihydro-2H-benzo[d][1,3]oxazin-7-yl)methyl)nicotinonitrile]",76 nM
6,"CC(F)(F)[C@@]1(C#CC2CC2)OC(=O)Nc2cc(Cc3ccnc(N)n3)c(F)cc21 [Example 39, (S)-7-((2-aminopyrimidin-4-yl)methyl)-4-(cyclopropylethynyl)-4-(1,1-difluoroethyl)-6-fluoro-1,4-dihydro-2H-benzo[d][1,3]oxazin-2-one]",16 nM
7,"N#Cc1c(Cc2cc3c(cc2F)[C@@](C#CC2CC2)(C(F)(F)F)OC(=O)N3)ccnc1N (single isomer, unassigned) [Example 32A]",111 nM
8,"Nc1nccn(Cc2cc3c(cc2F)[C@@](C#CC2CC2)(C(F)(F)F)OC(=O)N3)c1=O (single isomer, unassigned) [Example 1A]",39 nM
9,"CC(F)(F)[C@@]1(C#CC2CC2)OC(=O)Nc2cc(Cn3cnccc3=O)c(F)cc21 [Example 22, (S)-4-(cyclopropylethynyl)-4-(1,1-difluoroethyl)-6-fluoro-7-((6-oxopyrimidin-1(6H)-yl)methyl)-1,4-dihydro-2H-benzo[d][1,3]oxazin-2-one]",12 nM
10,"CC(F)(F)[C@@]1(C#CC2CC2)OC(=O)Nc2cc(Cc3ccnc(N)c3C#N)ccc21 [Example 35, (S)-2-amino-4-((4-(cyclopropylethynyl)-4-(1,1-difluoroethyl)-2-oxo-1,4-dihydro-2H-benzo[d][1,3]oxazin-7-yl)methyl)nicotinonitrile]",20 nM
11,"COCc1cc(=O)n(Cc2ccc3c(c2)NC(=O)O[C@]3(C#CC2CC2)C(C)(F)F)cn1 [Example 12, (S)-4-(cyclopropylethynyl)-4-(1,1-difluoroethyl)-7-((4-(methoxymethyl)-6-oxopyrimidin-1(6H)-yl)methyl)-1,4-dihydro-2H-benzo[d][1,3]oxazin-2-one]",68 nM
12,"N#Cc1c(Cc2cc3c(cc2Cl)[C@@](C#CC2CC2)(C(F)(F)F)OC(=O)N3)ccnc1N [Example 33, (S)-2-amino-4-((6-chloro-4-(cyclopropylethynyl)-2-oxo-4-(trifluoromethyl)-1,4-dihydro-2H-benzo[d][1,3]oxazin-7-yl)methyl)nicotinonitrile]",213 nM
13,"CC(F)(F)[C@@]1(C#CC2CC2)OC(=O)Nc2cc(Cn3cncc(N)c3=O)c(F)cc21 [Example 20, (S)-7-((5-amino-6-oxopyrimidin-1(6H)-yl)methyl)-4-(cyclopropylethynyl)-4-(1,1-difluoroethyl)-6-fluoro-1,4-dihydro-2H-benzo[d][1,3]oxazin-2-one]",11 nM
14,"Cc1cc(=O)n(Cc2cc3c(cc2Cl)[C@@](C#CC2CC2)(C(F)(F)F)OC(=O)N3)cn1 [Example 17, (S)-6-chloro-4-(cyclopropylethynyl)-7-((4-methyl-6-oxopyrimidin-1(6H)-yl)methyl)-4-(trifluoromethyl)-1,4-dihydro-2H-benzo[d][1,3]oxazin-2-one]",92 nM
15,"COc1cc(=O)n(Cc2cc3c(cc2F)[C@@](C#CC2CC2)(C(F)(F)F)OC(=O)N3)cn1 (single isomer, unassigned) [Example 4A]",25 nM
16,"CC(F)(F)[C@@]1(C#CC2CC2)OC(=O)Nc2cc(Cc3ccnc(N)n3)c(Cl)cc21 [Example 40, (S)-7-((2-aminopyrimidin-4-yl)methyl)-6-chloro-4-(cyclopropylethynyl)-4-(1,1-difluoroethyl)-1,4-dihydro-2H-benzo[d][1,3]oxazin-2-one]",65 nM
